What all share (assay): NCI anticancer screen, dose series, 48 h
Experiment [1] concerns A498 renal.
Experiment [2] has as its system HCT-116 colon.
The subject of experiment [3] is HOP-62 NSCLC.
For experiment [4], the system named is HOP-92 NSCLC.
Experiment [5] relates to HT29 colon.
In experiment [6] the test system is PC-3 prostate.
For experiment [7], the system named is SN12C renal.
The test system of experiment [8] is T-47D breast.
The test system of experiment [9] is UACC-62 melanoma.
The test system of experiment [10] is UO-31 renal.

“And” between values parts separate entries of the source, which are not always exact repeats. Equal values may be shown once.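 Where inhibition never reached the appropriate level, the endpoint shown equals the highest concentration tested. Otherwise, values were interpolated linearly from a five-concentration, 48-hour dose response in 96-well plates. Here, GI50 denotes the concentration required for 50% inhibition of growth. The concentration for full growth arrest is given as TGI.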

The values below come from PubChem BioAssay (NCI).

As for `C[n+]1c2ccccc2c(Nc2ccc(NS(=O)(=O)CCCCN=C(N)N)cc2)c2ccc(N)cc21`, the GI50 in [1] is 320 nM; in experiment [2], 1490 nM; in experiment [3], 217 nM; in [4], 1920 nM; in [5] it was 1020 nM; in experiment [6], 8.47 µM. In addition, the GI50 is 0.0443 µM in experiment [7], 0.222 µM in experiment [8], 917 nM in [9] and 6.5 µM in experiment [10]. The TGI was 31.4 µM in experiment [1]; above 100 µM in experiment [2]; 26.6 µM in experiment [3]; 52.9 µM in experiment [4]; 84.5 µM in experiment [5]; above 100 µM in experiment [6]. Further, the TGI is above 100 µM in [7], 13.5 µM in [8], 22.4 µM in experiment [9] and above 100 µM in experiment [10].
For the compound `CN1C(=O)C(=Cc2cn(Cc3ccccc3)c3ccccc23)C(=O)N(C)C1=O`, the GI50 in experiment [1] was 518 nM; in experiment [2] it was 11100 nM; in [3] it was 43000 nM; in experiment [4], 14700 nM; in experiment [5], above 78800 nM; in experiment [6], 27 µM. The GI50 in experiment [7] is 54.8 µM; in [8] it was 3.91 µM; in experiment [9] it was 1870 nM; in experiment [10], above 38.8 µM. In addition, the TGI in experiment [1] is 1.19 µM; in experiment [2], above 100 µM; in experiment [3], above 100 µM; in experiment [4], above 70.9 µM; in experiment [5], above 100 µM; in experiment [6], above 100 µM. The TGI in experiment [7] was above 100 µM; in [8] it was above 75.3 µM; in [9], above 35.3 µM; in [10], above 81.4 µM.
Consider `COc1c2c(c(CC=C(C)C)c3oc(=O)c(-c4ccc(O)cc4)c(O)c13)OC(C)(C)C=C2`, for which the TGI in experiment [1] is above 100 µM; in [2], 37.5 µM; in [3] it was 86.2 µM; in experiment [4], 58.7 µM; in experiment [5], above 100 µM; in experiment [6] it was above 100 µM. Also, the TGI in [7] is above 100 µM; in experiment [8], above 100 µM; in experiment [9] it was 46.6 µM; in experiment [10], above 100 µM.
Take `COc1ccc(-c2cn(-c3cccc(C(=O)/C=C/c4ccc(O)c(OC)c4)c3)c(=O)[nH]2)cc1`: the GI50 in experiment [1] is 3510 nM; in experiment [2] it was 1890 nM; in experiment [3], 8850 nM; in [4], 2610 nM; in experiment [5] it was 2990 nM; in experiment [6] it was 2.91 µM. In addition, the GI50 in [7] is 3.47 µM; in experiment [8], 3.27 µM; in experiment [9], 3180 nM; in experiment [10], 3.64 µM. The TGI in [1] is 13.1 µM; in experiment [2], 4.87 µM; in [3] it was above 100 µM; in experiment [4], 20.5 µM; in experiment [5], above 22.7 µM; in experiment [6] it was 14.2 µM. Moreover, the TGI in [7] is above 100 µM; in experiment [8] it was 40.8 µM; in [9], 16.1 µM; in [10], 40.3 µM.
For the compound `Cc1ccc(C(=O)N2CCN(C(=O)c3ccc(C)cc3)c3ccccc32)cc1`, the TGI in experiment [1] is above 74.1 µM; in [2] it was above 62.6 µM; in experiment [3], above 100 µM; in [4] it was above 61.2 µM; in experiment [5] it was 21.3 µM; in [6], above 100 µM. For the same compound, the TGI in experiment [7] was above 100 µM; in experiment [8] it was above 100 µM; in [9], above 100 µM; in [10], above 56.6 µM.
Consider `c1ccc(Nn2c(CCCCCCCCc3nnc(COc4ccccc4)n3Nc3ccccc3)nnc2COc2ccccc2)cc1`, for which the GI50 in experiment [1] is 37600 nM; in experiment [2], 51700 nM; in [4] it was 30700 nM and 41900 nM; in experiment [5] it was 41900 nM; in experiment [6], 8.32 µM and 23.9 µM; in experiment [7], 35.5 µM and 66.6 µM. For the same compound, the GI50 in experiment [8] was 12.3 µM and 7.31 µM; in [9], 1280 nM; in [10], 5.27 µM and 8.49 µM. Besides, the TGI was above 300 µM in experiment [1]; above 300 µM in experiment [2]; above 300 µM in experiment [3]; 267 µM in experiment [4]; above 300 µM in experiment [5]; above 300 µM in experiment [6]. The TGI in experiment [7] was above 300 µM; in experiment [8], above 300 µM; in [9], > 40.8 µM and 68 µM; in experiment [10], above 300 µM.
For `COc1cc(-c2csc(NC(=O)Nc3cc(C(F)(F)F)cc(C(F)(F)F)c3)n2)cc(OC)c1OC`, the GI50 in [1] is 1110 nM; in experiment [2], 2550 nM; in experiment [3], 2110 nM; in [4], 1350 nM; in experiment [5], 2670 nM; in [6], 1 µM. Also, the GI50 in experiment [7] is 3 µM; in experiment [8], 1.93 µM; in [9], 1590 nM; in [10] it was 2.85 µM. Also, the TGI worked out at 5.08 µM in experiment [1]; 10.2 µM in [2]; 6.36 µM in experiment [3]; 4.36 µM in experiment [4]; 11.2 µM in experiment [5]; 7.55 µM in [6]. Moreover, the TGI in [7] came to 11.8 µM; in experiment [8], 9.65 µM; in experiment [9] it was 4.53 µM; in [10] it was 12.1 µM.
For `O=C(NCCCCCCNC(=O)n1cc(F)c(=O)[nH]c1=O)NCCCOCCOCCOCCOCCOCCOCCOCCOCCOCCOCCOCCOCCOCCOCCOCCOCCOCCOCCOCCOCCOCCCNC(=O)C(O)C(O)C(OC1OC(CO)C(O)C(O)C1O)C(O)CO` (centres undefined), the TGI in experiment [1], in experiment [2], in experiment [3], in experiment [4], in experiment [5] and in experiment [6] was above 100 µM each time. Besides, the TGI in [7], in experiment [8], in experiment [9] and in [10] was above 100 µM in each case.
With `N#Cc1ccc(C2C3=C(CCCC3=O)OC3=C2C(=O)c2ccccc2C3=O)cc1` (centres undefined), the GI50 in experiment [1] was 13900 nM; in experiment [2], 480 nM; in experiment [3], 1950 nM; in experiment [4] it was 1270 nM; in experiment [5], 2910 nM; in experiment [6], 2.17 µM. The GI50 was 1.16 µM in experiment [7], 0.453 µM in [8], 2060 nM in [9] and 1.67 µM in experiment [10]. Moreover, the TGI in experiment [1] was 27 µM; in experiment [2], 2.11 µM; in experiment [3], 3.78 µM; in [4], 3.59 µM; in experiment [5] it was 8.04 µM; in experiment [6], 12.2 µM. Also, the TGI in [7] was 3.16 µM; in experiment [8], 2.24 µM; in experiment [9] it was 4.02 µM; in [10], 3.14 µM.
